Patent publication EP0726072A2, “Composition for the treatment of hypertension and congestive heart failure, containing an angiotensin II antagonist and an endopeptidase inhibitor” (BRISTOL-MYERS SQUIBB COMPANY, priority 1995, dated 1996)

Tested on: 1K1C hypertensive dogs
Experiment: Haemodynamic, renal and hormonal effects in conscious 1-kidney-1-clip hypertensive dogs
Format: in vivo
Protocol: The studies described in this experiment were conducted in dogs that had been rendered hypertensive by prior unilateral nephrectomy and constriction of the remaining renal artery. This model is characterized by normal basal levels of plasma renin activity and is relatively resistant to the anti-hypertensive activity of angiotensin converting enzyme inhibitors and AT1 receptor antagonists.
The following experiments were conducted in fasted 1K1C hypertensive dogs lightly restrained in standard canine slings. An indwelling arterial catheter was accessed via a subcutaneous port for measurement of blood pressure via a Gould-Statham pressure transducer. Mean arterial pressure (MAP) was continuously recorded on a Gould chart writer and stored electronically using a Po-Ne-Mah data acquisition system. During each study, urine was collected at 20 minute intervals via a Foley bladder catheter for determination of urine volume. The concentrations of urinary sodium and potassium were measured using ion-selective electrodes and their rates of urinary excretion (µEq/min) were calculated. Glomerular filtration rate (GFR) and effective renal plasma flow (ERPF) were determined by the renal clearances of exogenous creatinine and para-aminohippuric acid (PAH), respectively. The concentrations of creatinine and PAH in sequential samples of urine and plasma were determined by spectrophotometric assays and the clearances were calculated by the standard formula.
Arterial blood samples were drawn at the end of the control period and at 60 minute intervals thereafter for determination of the plasma concentrations of atrial natriuretic peptide (ANP), cyclic GMP and plasma renin activity (PRA) by separate radioimmunoassays. The plasma and urine samples were preserved and the assays were conducted according to standard radioimmunoassay procedures. Urinary excretion rates of cyclic GMP and ANP were calculated and expressed as pmol/min and fmol/min, respectively.
In each study, baseline measurements were obtained during two 20 minute control periods. One of the treatments was then administered and sampling continued at 20 minute intervals for three hours.
To minimize inter-animal variability, each data point was expressed as the change from the average control value for that parameter. Significant differences among treatments were identified by analysis of variance for repeated measures. […] Results are given as mean ± SEM.

[1] = 20 min after treatment, 30 µmol/kg iv of each agent
[2] = 40 min after treatment, 30 µmol/kg iv of each agent
[3] = 60 min after treatment, 30 µmol/kg iv of each agent
[4] = 80 min after treatment, 30 µmol/kg iv of each agent
[5] = 100 min after treatment, 30 µmol/kg iv of each agent
[6] = 120 min after treatment, 30 µmol/kg iv of each agent
[7] = 140 min after treatment, 30 µmol/kg iv of each agent
[8] = 160 min after treatment, 30 µmol/kg iv of each agent
[9] = 180 min after treatment, 30 µmol/kg iv of each agent

CCCCC1=NC2(CCCC2)C(=O)N1Cc1ccc(-c2ccccc2-c2nnn[nH]2)cc1 [BMS 186295, 2-butyl-6,7,8,9-tetrahydro-3-[[2'-(1H-tetrazol-5-yl)[1,1'-biphenyl]-4-yl]-methyl]-1,3-diazaspiro[4.4]nonan-4-one]
increase in the amount of sodium excreted during the 3 hours after injection (30 µmol/kg iv of each agent, cumulative over 3 hours): 5.4±1.0 mEq/3 hr | ANP Excretion, Change from control [1]: -0.7 ± 0.5 fmol/min | Cyclic GMP Excretion, Change from control [1]: -372 ± 240 pmol/min | Effective Renal Plasma Flow, Change from control [1]: -68 ± 30 mL/min | Glomerular Filtration Rate, Change from control [1]: -4 ± 2 mL/min | Mean Arterial Pressure, Change from control [1]: -1±1 mm Hg | Sodium Excretion, Change from control [1]: 23±9 µEq/min | Urine Volume, Change from control [1]: 0.01 ± 0.07 mL/min | ANP Excretion, Change from control [2]: -0.6 ± 0.5 fmol/min | Cyclic GMP Excretion, Change from control [2]: -277 ± 255 pmol/min | Effective Renal Plasma Flow, Change from control [2]: -54 ± 35 mL/min | Glomerular Filtration Rate, Change from control [2]: -2 ± 5 mL/min | Mean Arterial Pressure, Change from control [2]: -10±1 mm Hg | Sodium Excretion, Change from control [2]: 41±13 µEq/min | Urine Volume, Change from control [2]: 0.09 ± 0.14 mL/min | ANP Excretion, Change from control [3]: -0.2 ± 0.3 fmol/min | Cyclic GMP Excretion, Change from control [3]: -150 ± 203 pmol/min | Effective Renal Plasma Flow, Change from control [3]: -35 ± 24 mL/min | Glomerular Filtration Rate, Change from control [3]: 6 ± 0 mL/min | Mean Arterial Pressure, Change from control [3]: -8±2 mm Hg | Plasma Renin Activity, Change from control [3]: 1.28±0.51 pmol AI/ml/hr | Sodium Excretion, Change from control [3]: 36±8 µEq/min | Urine Volume, Change from control [3]: 0.12 ± 0.07 mL/min | ANP Excretion, Change from control [4]: -0.4 ± 0.3 fmol/min | Cyclic GMP Excretion, Change from control [4]: -309 ± 199 pmol/min | Effective Renal Plasma Flow, Change from control [4]: -13 ± 9 mL/min | Glomerular Filtration Rate, Change from control [4]: 5 ± 2 mL/min | Mean Arterial Pressure, Change from control [4]: -5±2 mm Hg | Sodium Excretion, Change from control [4]: 27±6 µEq/min | Urine Volume, Change from control [4]: 0.05 ± 0.06 mL/min | ANP Excretion, Change from control [5]: -0.6 ± 0.4 fmol/min | Cyclic GMP Excretion, Change from control [5]: -266 ± 193 pmol/min | Effective Renal Plasma Flow, Change from control [5]: -1 ± 10 mL/min | Glomerular Filtration Rate, Change from control [5]: 3 ± 4 mL/min | Mean Arterial Pressure, Change from control [5]: -4±1 mm Hg | Sodium Excretion, Change from control [5]: 22±3 µEq/min | Urine Volume, Change from control [5]: -0.02 ± 0.09 mL/min | ANP Excretion, Change from control [6]: -0.5 ± 0.4 fmol/min | Cyclic GMP Excretion, Change from control [6]: -283 ± 236 pmol/min | Effective Renal Plasma Flow, Change from control [6]: -8 ± 17 mL/min | Glomerular Filtration Rate, Change from control [6]: 4 ± 3 mL/min | Mean Arterial Pressure, Change from control [6]: -1±2 mm Hg | Plasma Renin Activity, Change from control [6]: 1.49±0.57 pmol AI/ml/hr | Sodium Excretion, Change from control [6]: 30±4 µEq/min | Urine Volume, Change from control [6]: -0.02 ± 0.10 mL/min | ANP Excretion, Change from control [7]: -0.6 ± 0.4 fmol/min | Cyclic GMP Excretion, Change from control [7]: -449 ± 206 pmol/min | Effective Renal Plasma Flow, Change from control [7]: 8 ± 3 mL/min | Glomerular Filtration Rate, Change from control [7]: 0 ± 5 mL/min | Mean Arterial Pressure, Change from control [7]: -1±2 mm Hg | Sodium Excretion, Change from control [7]: 28±7 µEq/min | Urine Volume, Change from control [7]: -0.07 ± 0.12 mL/min | ANP Excretion, Change from control [8]: -0.5 ± 0.4 fmol/min | Cyclic GMP Excretion, Change from control [8]: -391 ± 199 pmol/min | Effective Renal Plasma Flow, Change from control [8]: -14 ± 12 mL/min | Glomerular Filtration Rate, Change from control [8]: 0 ± 7 mL/min | Mean Arterial Pressure, Change from control [8]: 0±2 mm Hg | Sodium Excretion, Change from control [8]: 30±7 µEq/min | Urine Volume, Change from control [8]: -0.07 ± 0.16 mL/min | ANP Excretion, Change from control [9]: -0.6 ± 0.4 fmol/min | Cyclic GMP Excretion, Change from control [9]: -611 ± 346 pmol/min | Effective Renal Plasma Flow, Change from control [9]: -12 ± 11 mL/min | Glomerular Filtration Rate, Change from control [9]: 0 ± 4 mL/min | Mean Arterial Pressure, Change from control [9]: -1±3 mm Hg | Plasma Renin Activity, Change from control [9]: 1.24±0.62 pmol AI/ml/hr | Sodium Excretion, Change from control [9]: 30±2 µEq/min | Urine Volume, Change from control [9]: -0.02 ± 0.07 mL/min | ANP Excretion (Control, before treatment): 1.5 ± 0.6 fmol/min | Cyclic GMP Excretion (Control, before treatment): 1122 ± 389 pmol/min | Effective Renal Plasma Flow (Control, before treatment): 127 ± 41 mL/min | Glomerular Filtration Rate (Control, before treatment): 45 ± 10 mL/min | Mean Arterial Pressure (Control, before treatment): 157±7 mm Hg | Plasma Renin Activity (Control, before treatment): 0.55±0.07 pmol AI/ml/hr | Sodium Excretion (Control, before treatment): 18±2 µEq/min | Urine Volume (Control, before treatment): 0.43 ± 0.16 mL/min | sodium excretion, effect in words (summary of TABLE 2, 30 µmol/kg iv of each agent, 3 hours): increased | urine volume, effect in words (summary of TABLE 3, 30 µmol/kg iv of each agent, 3 hours): increased | Urinary excretion of ANP, effect in words (summary of TABLE 6, 30 µmol/kg iv of each agent): did not affect | PRA, effect in words (summary of TABLE 8, 30 µmol/kg iv of each agent): significantly increased | mean arterial pressure (MAP), effect in words (summary of Table 1, 30 µmol/kg iv of each agent, 3 hours): signigicantly reduced
